{
  "source": "paper PMC4741889",
  "about": "“Ligand-based chemoinformatic discovery of a novel small molecule inhibitor targeting CDC25 dual specificity phosphatases and displaying in vitro efficacy against melanoma cells” (Oncotarget, 2015)",
  "type_in_all_cases": "cell-based, human",
  "key": {"A2058 cells": {"test_system": "A2058 cells", "experiment": "Apoptosis, subdiploid DNA content by PI flow cytometry, A2058 cells", "source_text": "PI incorporation followed by flow cytometric analysis was used to detect the effect of 7 on the number of nuclei with a sub-diploid content, a typical hallmark of apoptosis. A time-dependent increase of apoptosis was evident in both A2058 and SAN cells and in particular, the effect of 7 on cell death program was already evident after 24-h treatment (Figure 7). […] To further investigate on the capacity of 7 to induce apoptosis, the enzymatic activity of caspase-3, the final effector of apoptotic program, was monitored.\n[…] After each treatment, cells were harvested with trypsin, centrifuged and the pellet was resuspended in phosphate-buffered saline (PBS). For cell cycle analysis, cells were fixed with 70% (v/v) cold ethanol and stored at −20°C for 1 h. Then, cells were washed with cold PBS, centrifuged and the pellets were resuspended in 200 μL of a non-lysis solution containing 50 μg/mL PI. For the evaluation of apoptosis, cells were not fixed in ethanol and directly resuspended in 200 μL of a hypotonic lysis solution containing 50 μg/mL PI. After incubation at 4°C for 30 min, cells were analyzed with a FACScan flow cytometer (Becton Dickinson) for evaluating the distribution in cell cycle phases or the presence of nuclei with a DNA content lower than the diploid."}, "pAkt protein levels": {"test_system": "pAkt protein levels", "experiment": "Western blotting of pAkt (Ser473) in A2058 cells", "settings": "A2058, 100 μM, 2 and 4 h", "experimental": "(§1) The molecular mechanisms that regulate the cytotoxic potential of 7 in melanoma cells were further investigated through the evaluation of the activation state of protein kinase B (pAkt), one of the key proteins involved in the control and regulation of cell survival. To this aim, the protein levels of pAkt have been analyzed after 2- and 4-h incubation of A2058 cells with 7. […] It is known that Akt regulates the process of cell survival by phosphorylating different substrates, directly or indirectly involved in the apoptotic program. One of these targets is p53, a protein with a tumor-suppressor activity that regulates the cell cycle, as well as the expression of several genes involved in the apoptosis. […]\n(§2) A2058 cells were seeded into 6-well-plates (3 × 10^5 cells/plate) for 24 h at 37°C and then treated at different times with 100 μM compound 7 or 0.5% DMSO. […] The protein concentration was determined by the method of Bradford, using bovine serum albumin (BSA) as standard. […] Membranes were then analysed by an enhanced chemiluminescence reaction, using Super Signal West Pico kit (Pierce) according to manufacturer's instruction; signals were visualized by autoradiography."}, "SAN cells": {"test_system": "SAN cells", "experiment": "Cell cycle analysis by PI flow cytometry, SAN cells", "settings": "100 μM, 16 and 24 h", "experimental": "As CDC25 phosphatases are key cell cycle regulators, the effect of 7 on cell cycle progression was investigated in detail. To this aim, asynchronously growing A2058 and SAN cells were treated at different times with 100 μM compound 7, and then cell cycle analysis was cytofluorimetrically monitored after propidium iodide (PI) incorporation. […] After 16-h incubation with […], cells were mainly and almost equally distributed in G0/G1 and G2/M phases (the ratio between them being 0.96), whereas the cellular population in the S phase was essentially undetectable. […] A similar general picture emerged from the effect of compound 7 on cell cycle progression of SAN cells (Supplementary Figure S3).\nCells were seeded into 6-well plates at 3 × 10^5 cells/well for 24 h at 37°C; after the addition of 100 μM 7 or 0.5% DMSO as a vehicle control, the incubation of treated cells continued for 16 or 24 h. After each treatment, cells were harvested with trypsin, centrifuged and the pellet was resuspended in phosphate-buffered saline (PBS). For cell cycle analysis, cells were fixed with 70% (v/v) cold ethanol and stored at −20°C for 1 h. […] After incubation at 4°C for 30 min, cells were analyzed with a FACScan flow cytometer (Becton Dickinson) for evaluating the distribution in cell cycle phases or the presence of nuclei with a DNA content lower than the diploid."}, "p53 protein levels": {"test_system": "p53 protein levels", "experiment": "Western blotting of p53 protein levels in A2058 cells", "settings": "A2058, 100 μM, 8 h; significant after 16 h", "experimental": "as §1, §2"}, "CDC25B protein levels": {"test_system": "CDC25B protein levels", "experiment": "Western blotting of CDC25B protein levels in A2058 cells", "settings": "A2058, 100 μM, up to 16 h", "experimental": "To better investigate the effect of this inhibitor at the molecular level, we evaluated if the treatment of A2058 cells with 7 affected also the protein levels of the three CDC25 forms. […] On the other hand, the protein levels of CDC25B were unaffected by treatment of A2058 cells with 7 up to 16 h.\nA2058 cells were seeded into 6-well-plates (3 × 10^5 cells/plate) for 24 h at 37°C and then treated at different times with 100 μM compound 7 or 0.5% DMSO. After treatment, cells were harvested, washed with PBS and then lysed in ice-cold modified radio immunoprecipitation assay (RIPA) buffer (50 mM Tris-HCl, pH 7.4, 150 mM NaCl, 1% Nonidet P-40, 0.25% sodium deoxycholate, 1 mM Na3VO4 and 1 mM NaF), supplemented with protease inhibitors and incubated for 30 min on ice. The supernatant obtained after centrifugation at 12,000 rpm for 30 min at 4°C constituted the total protein extract. The protein concentration was determined by the method of Bradford, using bovine serum albumin (BSA) as standard. Equal amounts of total protein extracts were used for Western blot analysis. […] Membranes were then analysed by an enhanced chemiluminescence reaction, using Super Signal West Pico kit (Pierce) according to manufacturer's instruction; signals were visualized by autoradiography."}},
  "data": [
    {"smiles": "O=C(O)C1CCCCC1c1c2ccc(=O)cc-2oc2cc(O)ccc12", "note": "(stereo not shown) [Compound 7, 2-(6-hydroxy-3-oxo-3H-xanthen-9-yl)cyclohexanecarboxylic acid]", "values": [
      {"measurement": "level of apoptosis caused by 7 in the presence of Z-VAD-FMK", "setting": "A2058 cells; A2058, 100 μM 7 + 100 μM Z-VAD-FMK, 48 h", "result": "significantly decreased"},
      {"measurement": "apoptosis (nuclei with sub-diploid content)", "setting": "A2058 cells; A2058, 100 μM, 24-72 h", "result": "increase of apoptosis became significant at 48 h"},
      {"measurement": "apoptosis after NAC pre-treatment", "setting": "A2058 cells; A2058, NAC pre-treatment, 100 μM 7, 48 h", "result": "in a great part reverted"},
      {"measurement": "protein level of pAkt with respect to total Akt", "setting": "pAkt protein levels", "result": "early reduction of the protein level of pAkt"},
      {"measurement": "cell distribution in the G2/M phase", "setting": "SAN cells", "result": "increase of cell distribution in the G2/M phase"},
      {"measurement": "p53 protein level", "setting": "p53 protein levels", "result": "higher level of p53 compared to control"},
      {"measurement": "CDC25B protein levels", "setting": "CDC25B protein levels", "result": "unaffected"}
    ]}
  ]
}
